Experimental data: US11421145B2, “Oil recovery methods using a formulation containing an unsaturated zwitterionic surfactant and a polymer” (King Fahd University of Petroleum and Minerals, priority 2019, dated 2022)

Assay: Compatibility of surfactant with AM-AMPS copolymer
Format: physicochemical
Conditions: commercially available AM-AMPS copolymer
Experimental: The interactions of the synthesized unsaturated surfactant with a commercially available copolymer of acrylamide and 2-acrylamido-2-methylpropane sulfonic acid (AM-AMPS) were evaluated using compatibility and rheological tests.

compatibility with acrylamide copolymer: excellent compatibility
Compound: CCCCCCCC/C=C\CCCCCCCC(=O)NCCC[N+](C)(C)CCCS(=O)(=O)[O-] [unsaturated surfactant, 3-(N-oleamidopropyl-N,N-dimethylammonium) propane sulfonate]
